Assay results: US20090142363A1, “CYTOTOXIC T-CELL EPITOPE PEPTIDE AND USE THEREOF” (priority 2005, published 2009)
No end group written: not given here.

Test system: peripheral blood / PBMCs / peptide-induced CTL lines of HLA-A*24 donors
Assay: Staining of peripheral blood, PBMCs or peptide-induced CTL lines with MHC-tetramer reagents
Assay type: cell-based, human
Parameters: positive rate: CD8-positive, MHC-tetramer reagent-positive cells to viable cells: concentration or dose not given beside the values
Details: for MHC-tetramer reagent-positive cells (UL and UR) in IFNγ / tetramer plot, almost none producing IFNγ: HIV peptide added, TYF: donor ID*24-8, VYS: donor ID*24-2; for increase of the positive rate from day 0 to day 10: donor ID*24-8, ten days of culture with the peptide; for amount of specific CTLs (CD8 / MHC-tetramer reagent-positive): TYF: donor ID*24-8, 10 days stimulation, VYS: donor ID*24-2, 27 days
Method: MBL Co. where the present inventors are affiliated with has acquired exclusive patent licensing rights in Japan for MHC-tetramer reagents (U.S. Pat. No. 5,635,363; French Application No. FR9911133; and U.S. Pat. Nos. 5,723,584, 5,874,239, 5,932,433, and 6,265,552) from Beckman Coulter Co. Based on the patents, PE-labeled MHC-tetramer reagents were prepared using adenovirus-specific CTL epitope peptides and HLA-A*2402 molecules.
Adenovirus-specific CTLs quantification was carried out using MHC-tetramer reagents that was prepared using CTL epitope peptides of the present invention, with peripheral blood, PBMCs isolated from peripheral blood, CTL lines induced using CTL epitope peptides as samples. Examples of quantification using PE-labeled MHC-tetramer reagents are described below. Labelling dyes may be used in an appropriate combination depending on the type of flow cytometer to be used, and is not limited to the examples described below.
Ten μl of a PE-labeled MHC-tetramer reagent, 20 μl of an FITC-labeled antibody for T cell (for example, CD8, CD4, or CD3), and such were added to 200 μl of collected peripheral blood. A CD45 antibody labeled with PC5 or such may also be added to eliminate nonspecific fluorescence due to contaminated erythrocytes. After gentle mixing, the mixture was allowed to stand at room temperature for 30 minutes. OptiLyse B was added, and erythrolysis and fixation was carried out according to the manufacturer's protocol. Two ml of PBS was added, stirred, and the cells were centrifuged at 400×g for 5 minutes. After the supernatant was removed by aspiration, the cells were resuspended in 500 μl of PBS and analyzed using a flow cytometer within 24 hours.
Ten μl of a PE-labeled MHC-tetramer reagent, 20 μl of an FITC-labeled T cell surface antibody (for example, CD8, CD4, or CD3), and such were added to an appropriate amount of PBMCs (10^5 to 10^6 cells) or a CTL line induced by use of CTL epitope peptides. A CD45 antibody labeled with PC5 or such may also be added to eliminate nonspecific fluorescence due to contaminated erythrocytes. After gentle mixing, the cells were allowed to stand at room temperature for 30 minutes. Three ml of PBS was added, stirred, and the cells were centrifuged at 400×g for 5 minutes. After the supernatant was removed by aspiration, the cells were resuspended in 500 μl of PBS. When a CTL line is used, 7-AAD Viability Dye (Non-viable cell detection reagent; MBL Co.) may be added to eliminate nonspecific fluorescence caused by non-viable cells. The cells were analyzed using a flow cytometer within 24 hours.
The results of staining obtained using the five types of MHC-tetramer reagents used to prepare the peptide-induced CTL lines are shown in FIG. 5.

[1] = donor ID*24-8, PBMCs cultured with the epitope peptide for 10 days (day 10)
[2] = donor ID*24-8, immediately after blood collection (day 0)
[3] = restimulation with the specific peptide

Sequence | MHC-tetramer reagent-positive cells (UL and UR) in IFNγ / tetramer plot, almost none producing IFNγ [%] | positive rate: CD8-positive, MHC-tetramer reagent-positive cells to viable cells [1] [%] | positive rate: CD8-positive, MHC-tetramer reagent-positive cells to viable cells [2] [%] | increase of the positive rate from day 0 to day 10 [times] | amount of specific CTLs (CD8 / MHC-tetramer reagent-positive) (restimulation with HIV peptide) [%] | amount of specific CTLs (CD8 / MHC-tetramer reagent-positive) [3] [%]
VYSGSIPYL | 8.24 | 0.15 | 0.01 | 15 | 8.33 | 5.07
TYFNLGNKF [TYF] | 1.76 | 1.53 | 0.01 | 153 | 1.67 | 0.80
